Data taken from patent publication US8188077B2, “Apoptosis-inducing agents for the treatment of cancer and immune and autoimmune diseases” (Abbott Laboratories, priority 2010, dated 2012).

biological target: T1, Bcl-2 protein (Homo sapiens, UniProt P10415, DELINS35-91DVEENRTEAPEGTESE, form not given); assay: Bcl-2 fluorescence polarization assay (FPA) binding; details: 10 nM Bcl-2 protein, 1 nM fluorescein-labeled BAX peptide, room temperature, read-out: Bcl-2 FPA 11pt Ki
T1 construct: fused on or other part: Bcl-xL (Q07817) residues 29-44 stand in place of Bcl-2's own unstructured loop 35-91; The C-terminal membrane anchor (208-239) is absent
T1 sequence (P10415 with tags, fused parts or gaps with the stated changes): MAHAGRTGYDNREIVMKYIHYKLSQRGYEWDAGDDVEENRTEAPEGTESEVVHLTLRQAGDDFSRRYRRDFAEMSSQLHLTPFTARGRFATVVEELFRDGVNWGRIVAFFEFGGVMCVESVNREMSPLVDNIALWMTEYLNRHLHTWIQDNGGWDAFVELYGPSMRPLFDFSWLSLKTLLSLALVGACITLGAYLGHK
Experimental: Assays for the inhibition of Bcl-2 were performed in 96-well microtiter plates. Compounds of the instant invention were diluted in DMSO to concentrations between […] and 10 pM and introduced into each well of the plate. A mixture totaling 125 µL per well of assay buffer (20 mM phosphate buffer (pH 7.4), 1 mM EDTA, 0.05% PF-68), 10 nM of Bcl-2 protein (prepared according to the procedure described in PNAS 2001, 98, 3012-3017), 1 nM fluorescein-labeled BAX peptide (prepared in-house), and the DMSO solution of the compound of the instant invention was shaken for 2 minutes and placed in a LJL Analyst (LJL Bio Systems, CA. Polarization was measured at room temperature using a continuous Fluorescein lamp (excitation 485 nm, emission 530 nm). Ki values were calculated using Microsoft Excel.

SMILES | Ki [nM]
C[C@@H]1[C@H]2C[C@@H](C[C@H]1Nc1ccc(S(=O)(=O)NC(=O)c3ccc(N4CCN(Cc5ccccc5-c5ccc(Cl)cc5)CC4)cc3)cc1[N+](=O)[O-])C2(C)C [Example 1, 4-{4-[(4′-chlorobiphenyl-2-yl)methyl]piperazin-1-yl}-N-[(3-nitro-4-{[(1R,2R,3R,5S)-2,6,6-trimethylbicyclo[3.1.1]hept-3-yl]amino}phenyl)sulfonyl]benzamide] | 174
CC(=O)N(C1CCN(c2ccc(C(=O)NS(=O)(=O)c3ccc(NCC4CCCCC4)c([N+](=O)[O-])c3)cc2)CC1)[C@H]1C[C@H]2C[C@@H]([C@@H]1C)C2(C)C [Example 2, 4-(4-{acetyl[(1S,2S,3S,5R)-2,6,6-trimethylbicyclo[3.1.1]hept-3-yl]amino}piperidin-1-yl)-N-({4-[(cyclohexylmethyl)amino]-3-nitrophenyl}sulfonyl)benzamide] | 220
C[C@@H]1[C@@H](N(C(=O)c2ccccc2)C2CCN(c3ccc(C(=O)NS(=O)(=O)c4ccc(NCC5CCCCC5)c([N+](=O)[O-])c4)cc3)CC2)C[C@H]2C[C@@H]1C2(C)C [Example 3, 4-(4-{benzoyl[(1S,2S,3S,5R)-2,6,6-trimethylbicyclo[3.1.1]hept-3-yl]amino}piperidin-1-yl)-N-({4-[(cyclohexylmethyl)amino]-3-nitrophenyl}sulfonyl)benzamide] | 65
C[C@@H]1[C@@H](Nc2cccc(-c3ccc(C(=O)NS(=O)(=O)c4ccc(NCC5CCCCC5)c([N+](=O)[O-])c4)cc3)c2)C[C@H]2C[C@@H]1C2(C)C [Example 4, N-({4-[(cyclohexylmethyl)amino]-3-nitrophenyl}sulfonyl)-3′-{[(1S,2S,3S,5R)-2,6,6-trimethylbicyclo[3.1.1]hept-3-yl]amino}biphenyl-4-carboxamide] | 191
C[C@@H]1[C@@H](Nc2ccc(-c3ccc(C(=O)NS(=O)(=O)c4ccc(NCC5CCCCC5)c([N+](=O)[O-])c4)cc3)cc2)C[C@H]2C[C@@H]1C2(C)C [Example 6, N-({4-[(cyclohexylmethyl)amino]-3-nitrophenyl}sulfonyl)-4′-{[(1S,2S,3S,5R)-2,6,6-trimethylbicyclo[3.1.1]hept-3-yl]amino}biphenyl-4-carboxamide] | 155
C[C@@H]1[C@@H](N(CCCc2ccccc2)c2ccc(-c3ccc(C(=O)NS(=O)(=O)c4ccc(NCC5CCCCC5)c([N+](=O)[O-])c4)cc3)cc2)C[C@H]2C[C@@H]1C2(C)C [Example 7, N-({4-[(cyclohexylmethyl)amino]-3-nitrophenyl}sulfonyl)-4′-{(3-phenylpropyl)[(1S,2S,3S,5R)-2,6,6-trimethylbicyclo[3.1.1]hept-3-yl]amino}biphenyl-4-carboxamide] | 1260
O=C(NS(=O)(=O)c1ccc(NCC2CCCCC2)c([N+](=O)[O-])c1)c1ccc(N2CCC3CC2CN3CC23CC4CC(CC(C4)C2)C3)cc1 (stereo not shown) [Example 8, 4-{6-[adamantan-1-ylmethyl]-2,6-diazabicyclo[3.2.1]oct-2-yl}-N-({4-[(cyclohexylmethyl)amino]-3-nitrophenyl}sulfonyl)benzamide] | 84.6
O=C(NS(=O)(=O)c1ccc(NCC2CCCCC2)c([N+](=O)[O-])c1)c1ccc(N2C[C@@H]3C[C@H]2CN3CC23CC4CC(CC(C4)C2)C3)cc1 [Example 11, 4-{(1S,4S)-5-[adamantan-1-ylmethyl]-2,5-diazabicyclo[2.2.1]hept-2-yl}-N-({4-[(cyclohexylmethyl)amino]-3-nitrophenyl}sulfonyl)benzamide] | 1300
CC12CC3CC(Br)(C1)CC(CN1CCN(c4ccc(C(=O)NS(=O)(=O)c5ccc(NCC6CCCCC6)c([N+](=O)[O-])c5)cc4)CC1)(C3)C2 (stereo not shown) [Example 12, 4-(4-{[3-bromo-5-methyladamantan-1-yl]methyl}piperazin-1-yl)-N-({4-[(cyclohexylmethyl)amino]-3-nitrophenyl}sulfonyl)benzamide] | 304
CC12CC3CC(C)(C1)CC(CN1CCN(c4ccc(C(=O)NS(=O)(=O)c5ccc(NCC6CCCCC6)c([N+](=O)[O-])c5)cc4)CC1)(C3)C2 [Example 13, N-({4-[(cyclohexylmethyl)amino]-3-nitrophenyl}sulfonyl)-4-(4-{[3,5-dimethyladamantan-1-yl]methyl}piperazin-1-yl)benzamide] | 608
CC1(C)[C@H]2CC(CN3CCN(c4ccc(C(=O)NS(=O)(=O)c5ccc(NCC6CCCCC6)c([N+](=O)[O-])c5)cc4)CC3)=C(c3ccc(Cl)cc3)[C@@H]1C2 [Example 19, 4-(4-{[(1R,5R)-2-(4-chlorophenyl)-6,6-dimethylbicyclo[3.1.1]hept-2-en-3-yl]methyl}piperazin-1-yl)-N-({4-[(cyclohexylmethyl)amino]-3-nitrophenyl}sulfonyl)benzamide] | 603
CC1(C)CCC(NCC2C3CC4CC(C3)CC2C4)C(CN2CCN(c3ccc(C(=O)NS(=O)(=O)c4ccc(NCC5CCOCC5)c([N+](=O)[O-])c4)cc3)CC2)C1 (stereo not shown) [Example 20, 4-{4-[(2-{[adamantan-2-ylmethyl]amino}-5,5-dimethylcyclohexyl)methyl]piperazin-1-yl}-N-({3-nitro-4-[(tetrahydro-2H-pyran-4-ylmethyl)amino]phenyl}sulfonyl)benzamide] | > 51900
C[C@@H]1[C@@H](NC2CCC(C)(C)CC2CN2CCN(c3ccc(C(=O)NS(=O)(=O)c4ccc(NCC5CCOCC5)c([N+](=O)[O-])c4)cc3)CC2)C[C@@H]2C[C@H]1C2(C)C (stereo partly drawn) [Example 21, 4-{4-[(5,5-dimethyl-2-{[(1R,2S,3S,5S)-2,6,6-trimethylbicyclo[3.1.1]hept-3-yl]amino}cyclohexyl)methyl]piperazin-1-yl}-N-({3-nitro-4-[(tetrahydro-2H-pyran-4-ylmethyl)amino]phenyl}sulfonyl)benzamide] | 5600

Compounds with a lower Ki, results first:

Ki [nM] | SMILES
59.2 | C[C@@H]1[C@@H](N(C(=O)Cc2ccccc2)C2CCN(c3ccc(C(=O)NS(=O)(=O)c4ccc(NCC5CCCCC5)c([N+](=O)[O-])c4)cc3)CC2)C[C@H]2C[C@@H]1C2(C)C [Example 5, N-({4-[(cyclohexylmethyl)amino]-3-nitrophenyl}sulfonyl)-4-(4-{(phenylacetyl)[(1S,2S,3S,5R)-2,6,6-trimethylbicyclo[3.1.1]hept-3-yl]amino}piperidin-1-yl)benzamide]
< 20 | C[C@@H]1[C@@H](N(C(=O)CCc2ccccc2)C2CCN(c3ccc(C(=O)NS(=O)(=O)c4ccc(N[C@H](CCN5CCOCC5)CSc5ccccc5)c(S(=O)(=O)C(F)(F)F)c4)cc3)CC2)C[C@H]2C[C@@H]1C2(C)C [Example 9, N-[(4-{[(2R)-4-(morpholin-4-yl)-1-(phenylthio)butan-2-yl]amino}-3-[(trifluoromethyl)sulfonyl]phenyl)sulfonyl]-4-(4-{(3-phenylpropanoyl)[(1S,2S,3S,5R)-2,6,6-trimethylbicyclo[3.1.1]hept-3-yl]amino}piperidin-1-yl)benzamide]
< 20 | O=C(NS(=O)(=O)c1ccc(N[C@H](CCN2CCOCC2)CSc2ccccc2)c([N+](=O)[O-])c1)c1ccc(N2CCN(CC34CC5CC(CC(C5)C3)C4)CC2)cc1 [Example 10, 4-{4-[adamantan-1-ylmethyl]piperazin-1-yl}-N-[(4-{[(2R)-4-(morpholin-4-yl)-1-(phenylthio)butan-2-yl]amino}-3-nitrophenyl)sulfonyl]benzamide]
47.4 | CC12CC(CN(c3ccc(S(=O)(=O)NC(=O)c4ccc(N5CCN(Cc6ccccc6-c6ccc(Cl)cc6)CC5)cc4)cc3)C1=O)C2 [Example 14, 4-{4-[(4′-chlorobiphenyl-2-yl)methyl]piperazin-1-yl}-N-{[4-(1-methyl-2-oxo-3-azabicyclo[3.1.1]hept-3-yl)phenyl]sulfonyl}benzamide]
< 20 | CC1(C)[C@H]2C=C(c3ccccc3CN3CCN(c4ccc(C(=O)NS(=O)(=O)c5ccc(NCC6CCOCC6)c([N+](=O)[O-])c5)cc4)CC3)[C@]1(C)CC2 [Example 15, N-({3-nitro-4-[(tetrahydro-2H-pyran-4-ylmethyl)amino]phenyl}sulfonyl)-4-(4-{2-[(1R,4R)-1,7,7-trimethylbicyclo[2.2.1]hept-2-en-2-yl]benzyl}piperazin-1-yl)benzamide]
39.7 | O=C(NS(=O)(=O)c1ccc(NCC2CCOCC2)c([N+](=O)[O-])c1)c1ccc(N2CCN(Cc3ccccc3NC3CC4CC3C3CCCC43)CC2)cc1 (stereo not shown) [Example 16]
30.1 | C[C@H]1[C@H]2C[C@H](CC2Nc2ccccc2CN2CCN(c3ccc(C(=O)NS(=O)(=O)c4ccc(NCC5CCOCC5)c([N+](=O)[O-])c4)cc3)CC2)C1(C)C (stereo partly drawn) [Example 17, N-({3-nitro-4-[(tetrahydro-2H-pyran-4-ylmethyl)amino]phenyl}sulfonyl)-4-[4-(2-{[(1R,4R,6S)-5,5,6-trimethylbicyclo[2.2.1]hept-2-yl]amino}benzyl)piperazin-1-yl]benzamide]
< 20 | CC1(C)[C@H]2CCC(Nc3ccccc3CN3CCN(c4ccc(C(=O)NS(=O)(=O)c5ccc(NCC6CCOCC6)c([N+](=O)[O-])c5)cc4)CC3)[C@@H]1C2 (stereo partly drawn) [Example 18, 4-[4-(2-{[(1R,5S)-6,6-dimethylbicyclo[3.1.1]hept-2-yl]amino}benzyl)piperazin-1-yl]-N-({3-nitro-4-[(tetrahydro-2H-pyran-4-ylmethyl)amino]phenyl}sulfonyl)benzamide]
31.4 | O=C(NS(=O)(=O)c1ccc(NCC2CCOCC2)c([N+](=O)[O-])c1)c1ccc(N2CCN(Cc3cc([N+](=O)[O-])ccc3N3CC4CCC(CC4)C3)CC2)cc1 [Example 22, 4-{4-[2-(3-azabicyclo[3.2.2]non-3-yl)-5-nitrobenzyl]piperazin-1-yl}-N-({3-nitro-4-[(tetrahydro-2H-pyran-4-ylmethyl)amino]phenyl}sulfonyl)benzamide]
